From publication PMC9434702 (Journal of medicinal chemistry, 2022)

Legend:
recombinant human Pgp = recombinant human Pgp (Homo sapiens, UniProt P08183); test: Pgp-Glo assay; type: in vitro ADME; conditions: 100 μM compound; change relative to Na3VO4 samples = Pgp ATPase activity
mGluR2 [1] = target: T1, mGluR2 (Homo sapiens, UniProt Q14416)
Rat plasma stability = type: in vitro ADME; conditions: 37 °C, peak area at 60 min vs 0 min
[2] = Rat liver microsome stability; type: in vitro ADME, Sprague–Dawley rat; conditions: NADPH, 37 °C, peak area at 60 min vs 0 min
mGluR2 [3] = target: mGluR2 (Rattus norvegicus, UniProt P31421); test: Pretreatment; type: in vivo, Sprague–Dawley rats
Sequence of mGluR2 (Rattus norvegicus, UniProt P31421) (P31421 19-872): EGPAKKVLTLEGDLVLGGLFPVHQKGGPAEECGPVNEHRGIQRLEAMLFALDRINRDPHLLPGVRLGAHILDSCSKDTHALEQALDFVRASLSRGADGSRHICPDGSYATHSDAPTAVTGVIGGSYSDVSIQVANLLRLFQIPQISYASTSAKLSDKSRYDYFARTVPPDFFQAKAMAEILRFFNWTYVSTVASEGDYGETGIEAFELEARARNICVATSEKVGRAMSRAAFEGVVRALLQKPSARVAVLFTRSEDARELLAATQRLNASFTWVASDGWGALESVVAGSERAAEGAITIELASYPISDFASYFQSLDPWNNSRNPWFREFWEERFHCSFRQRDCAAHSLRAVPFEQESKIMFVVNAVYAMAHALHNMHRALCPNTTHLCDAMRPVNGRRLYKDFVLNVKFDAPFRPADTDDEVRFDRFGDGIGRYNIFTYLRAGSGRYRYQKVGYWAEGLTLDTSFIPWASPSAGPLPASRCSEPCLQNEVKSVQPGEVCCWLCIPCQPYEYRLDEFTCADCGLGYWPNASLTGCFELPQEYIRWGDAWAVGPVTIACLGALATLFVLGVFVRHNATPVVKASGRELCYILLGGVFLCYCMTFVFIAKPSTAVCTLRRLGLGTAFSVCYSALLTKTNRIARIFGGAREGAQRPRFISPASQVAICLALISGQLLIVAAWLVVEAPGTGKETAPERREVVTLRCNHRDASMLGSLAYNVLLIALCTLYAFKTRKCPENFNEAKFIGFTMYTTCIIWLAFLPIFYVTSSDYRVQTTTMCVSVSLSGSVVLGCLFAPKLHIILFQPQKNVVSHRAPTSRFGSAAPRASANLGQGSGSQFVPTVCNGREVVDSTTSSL

[4] = rat; cited from earlier work
mGluR2 [5] = target: T1, mGluR2; conditions: mGluR2 NAM; cited from earlier work
[6] = rat brain; cited from earlier work
[7] = 0.5 mg/kg iv., 1 min before tracer
[8] = 0.2 mg/kg iv., 1 min before tracer
[9] = 0.2 mg/kg iv., 20 min before tracer

T1 sequence (Q14416 19-872): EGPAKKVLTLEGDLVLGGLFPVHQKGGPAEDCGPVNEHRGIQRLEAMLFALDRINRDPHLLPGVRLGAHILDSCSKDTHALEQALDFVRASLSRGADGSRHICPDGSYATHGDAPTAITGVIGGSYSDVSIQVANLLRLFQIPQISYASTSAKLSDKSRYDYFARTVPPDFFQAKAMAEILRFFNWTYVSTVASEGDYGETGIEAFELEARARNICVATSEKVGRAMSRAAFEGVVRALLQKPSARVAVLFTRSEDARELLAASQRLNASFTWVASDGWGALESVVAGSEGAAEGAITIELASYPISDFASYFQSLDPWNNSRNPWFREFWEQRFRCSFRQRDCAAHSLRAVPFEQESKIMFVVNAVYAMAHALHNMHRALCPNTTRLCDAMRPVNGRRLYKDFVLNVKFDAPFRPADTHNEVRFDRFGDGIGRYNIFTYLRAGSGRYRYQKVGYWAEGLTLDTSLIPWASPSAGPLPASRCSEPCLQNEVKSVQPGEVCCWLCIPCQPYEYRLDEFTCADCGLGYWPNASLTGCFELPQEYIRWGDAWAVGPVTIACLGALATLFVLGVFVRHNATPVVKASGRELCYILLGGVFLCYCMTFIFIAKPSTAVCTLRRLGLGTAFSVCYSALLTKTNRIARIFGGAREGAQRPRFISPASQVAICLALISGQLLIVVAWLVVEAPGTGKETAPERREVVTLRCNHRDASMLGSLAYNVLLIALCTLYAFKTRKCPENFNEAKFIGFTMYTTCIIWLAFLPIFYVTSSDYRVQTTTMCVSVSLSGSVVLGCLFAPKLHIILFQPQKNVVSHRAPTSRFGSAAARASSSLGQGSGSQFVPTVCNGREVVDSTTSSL
Sequence of recombinant human Pgp (P08183 whole entry): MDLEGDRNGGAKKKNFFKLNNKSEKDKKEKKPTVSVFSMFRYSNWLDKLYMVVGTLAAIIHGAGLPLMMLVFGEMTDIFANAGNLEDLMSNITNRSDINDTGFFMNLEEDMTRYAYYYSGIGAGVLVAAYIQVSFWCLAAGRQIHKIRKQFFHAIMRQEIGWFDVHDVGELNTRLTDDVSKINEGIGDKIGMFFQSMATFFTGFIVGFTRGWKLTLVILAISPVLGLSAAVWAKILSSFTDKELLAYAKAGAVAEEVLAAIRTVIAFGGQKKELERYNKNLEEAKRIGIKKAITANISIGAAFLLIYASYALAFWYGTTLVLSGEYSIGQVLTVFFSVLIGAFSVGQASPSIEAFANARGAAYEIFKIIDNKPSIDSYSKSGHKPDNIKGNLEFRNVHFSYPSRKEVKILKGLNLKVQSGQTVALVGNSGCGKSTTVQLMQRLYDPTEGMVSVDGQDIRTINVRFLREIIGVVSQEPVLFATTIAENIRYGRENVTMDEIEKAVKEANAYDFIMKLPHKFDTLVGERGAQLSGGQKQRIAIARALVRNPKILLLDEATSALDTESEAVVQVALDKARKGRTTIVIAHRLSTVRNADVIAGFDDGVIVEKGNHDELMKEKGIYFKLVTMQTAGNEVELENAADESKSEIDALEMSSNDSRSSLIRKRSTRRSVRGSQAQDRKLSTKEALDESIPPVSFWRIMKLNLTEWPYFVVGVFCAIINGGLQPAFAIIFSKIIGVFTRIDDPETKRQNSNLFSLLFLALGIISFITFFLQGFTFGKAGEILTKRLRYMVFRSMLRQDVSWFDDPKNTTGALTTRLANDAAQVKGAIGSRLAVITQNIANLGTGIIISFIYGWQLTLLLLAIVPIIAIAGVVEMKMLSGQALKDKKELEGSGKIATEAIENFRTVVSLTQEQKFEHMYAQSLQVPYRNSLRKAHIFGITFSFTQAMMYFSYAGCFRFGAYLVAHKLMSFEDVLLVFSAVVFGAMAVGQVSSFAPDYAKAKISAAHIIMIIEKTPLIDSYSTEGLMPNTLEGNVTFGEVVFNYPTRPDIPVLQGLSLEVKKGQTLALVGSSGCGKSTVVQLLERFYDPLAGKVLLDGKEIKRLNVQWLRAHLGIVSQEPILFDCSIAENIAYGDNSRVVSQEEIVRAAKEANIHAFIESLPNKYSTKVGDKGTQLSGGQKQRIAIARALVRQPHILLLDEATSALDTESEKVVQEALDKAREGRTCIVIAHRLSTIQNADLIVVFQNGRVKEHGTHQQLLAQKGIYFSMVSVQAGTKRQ

CC1(C)CCc2c(-c3ccc(F)cc3F)cc(C(N)=O)nc2O1 [compound 12, 5-(2,4-Difluorophenyl)-2,2-dimethyl-3,4-dihydro-2H-pyrano[2,3-b]pyridine-7-carboxamide]
luminescence change (p/s) (recombinant human Pgp): 3.07 × 10^7 p/s | agonist activity at mGluR2 (mGluR2 [1]; cells induced with 1 μg/mL tetracycline, no glutamate): no agonist activity was observed | concentration at which potent NAM activity begins (mGluR2 [1]; in the presence of increasing concentrations of L-glutamate): ~30 nM | plasma stability (Rat plasma stability): > 92% | microsome stability [2]: > 92%

Cn1ccc(COc2cnc(C(N)=O)cc2-c2ccc(F)cc2)n1 [compound 9]
decrease of [11C]13 radioactivity accumulation, average across ROIs (mGluR2 [3]; [7]): 22.4 ± 7.3% | decrease of [11C]13 radioactivity accumulation, cortex (highest) (mGluR2 [3]; [7]): 38.5% | decrease of [11C]13 radioactivity accumulation, thalamus (least) (mGluR2 [3]; [7]): 17.1% | decrease of [11C]13 radioactivity accumulation, total average (mGluR2 [3]; 0.5 mg/kg iv., 20 min before tracer): 14.5 ± 1.5% | half-life (t1/2) [4]: 20 min | plasma clearance (CLp) [4]: 118 mL/min/kg | IC50 (mGluR2 [5]): 78 nM

COc1ccc(-c2cc(C(N)=O)nc3c2CCC(C)(C)O3)c(F)c1 [compound 13, 5-(2-Fluoro-4-methoxyphenyl)-2,2-dimethyl-3,4-dihydro-2H-pyrano[2,3-b]pyridine-7-carboxamide]
luminescence change (p/s) (recombinant human Pgp): 1.53 × 10^7 p/s | plasma stability (Rat plasma stability): 94.5%

N#Cc1cc(C2=Nc3ccc(Br)cc3NC(=O)C2)ccn1 [compound 26]
decrease of [11C]13 radioactivity accumulation, among ROIs (mGluR2 [3]; [8]): 41.7 ± 1.1% | decrease of [11C]13 radioactivity accumulation, cerebellum (least) (mGluR2 [3]; [8]): 39.6% | decrease of [11C]13 radioactivity accumulation, hypothalamus (highest) (mGluR2 [3]; [8]): 42.6% | decrease of [11C]13 radioactivity accumulation, average (mGluR2 [3]; [9]): 12.7 ± 1.7% | decrease of [11C]13 radioactivity accumulation, cerebellum (highest) (mGluR2 [3]; [9]): 15.2% | decrease of [11C]13 radioactivity accumulation, striatum (lowest) (mGluR2 [3]; [9]): 11.1%

COc1ccc(-c2cc(C(N)=O)nc3cc(CN4C(=O)CCC4=O)ccc23)c(F)c1 [compound 7]
SUVmax [6]: 0.3
